Data from ChEMBL document CHEMBL1125854, “Synthesis of substituted 5-amino-8-phenyl-3H,6H-1,4,5a,8a-tetraazaacenaphthalen-3-ones, a new class of agents for the improvement of cognition” (1991).
“And” between values parts separate entries of the source, which are not always exact repeats. Identical values can stand only once.

Legend:
Type in all cases: functional
Mus musculus [1] = experiment: Survival of mice after intraperitoneal administration of 100 mg/kg compound by using hypoxic survival test was determined; details: ip
Mus musculus [2] = experiment: Tested for hypoxic survival test by 100 mg/kg intraperitoneal administration and percent survival of mice was reported.; details: ip
Mus musculus [3] = experiment: Attenuation of anoxic-induced amnesia in mice treated with 25 mg/kg compound administered intraperitoneally was determined; details: route intraperitoneal
Mus musculus [4] = experiment: Tested for hypoxic survival test by 0.125 mg/kg intraperitoneal administration and percent survival of mice was reported; Value ranges from 60-80; details: ip
Mus musculus [5] = experiment: Attenuation of anoxic-induced amnesia in mice treated with 0.1 mg/kg compound administered intraperitoneally was determined; details: route intraperitoneal
Mus musculus [6] = experiment: (§1) Attenuation of anoxic-induced amnesia in mice treated with 100 mg/kg compound administered intraperitoneally was determined; details: route intraperitoneal
Mus musculus [7] = experiment: as §1; details: route intraperitoneal; remark: listed apart in the source
Mus musculus [8] = experiment: Survival of mice after intraperitoneal administration of 50 mg/kg compound by using hypoxic survival test was determined; details: ip
Mus musculus [9] = experiment: Attenuation of anoxic-induced amnesia in mice treated with 100 mg/kg compound administered intraperitoneally was determined; 153-209; details: route intraperitoneal
Mus musculus [10] = experiment: Attenuation of anoxic-induced amnesia in mice treated with 10 mg/kg compound administered intraperitoneally was determined; details: route intraperitoneal

`CC(C)Nc1nc(=O)c2cnn3c2n1CC=C3c1cccc(C(F)(F)F)c1` was tested, and the survival at 100 mg/kg (Mus musculus [1]) was 15%.

In the case of `CNc1nc(=O)c2cnn3c2n1CC=C3c1ccccc1`, the survival at 100 mg/kg (Mus musculus [2]) is reported as 95%.

Compound `CCNc1nc(=O)c2cnn3c2n1CC=C3c1ccccc1` has a survival at 100 mg/kg (Mus musculus [2]) of 73%.

With `CCCCNc1nc(=O)c2cnn3c2n1CC=C3c1ccccc1` the survival at 100 mg/kg (Mus musculus [2]) was 70%, the Improvement (Mus musculus [3]) was 67% and the Latency (Mus musculus [3]) was 127 s and 132 s.

Compound `CC(C)Nc1nc(=O)c2cnn3c2n1CC=C3c1ccccc1` has a survival at 100 mg/kg (Mus musculus [2]) of 20%.

Compound `CNC(=O)Oc1ccc2c(c1)[C@]1(C)CCN(C)[C@@H]1N2C` [PHYSOSTIGMINE] has a survival at 0.125 mg/kg (Mus musculus [4]) of 60% and an Improvement (Mus musculus [5]) of 36%.

Compound `CC(C)CNc1nc(=O)c2cnn3c2n1CC=C3c1cccc(C(F)(F)F)c1` has a Latency (Mus musculus [6]) of 51 s, a Latency (Mus musculus [7]) of 218 s and a survival at 50 mg/kg (Mus musculus [8]) of 50%. For the same compound, the Improvement (Mus musculus [9]) was 209%.

`CCCCNc1nc(=O)c2cnn3c2n1CC=C3c1cccc(C(F)(F)F)c1` showed a survival at 100 mg/kg (Mus musculus [1]) of 58%.

Compound `CCNc1nc(=O)c2cnn3c2n1CC=C3c1cccc(C(F)(F)F)c1` has a survival at 100 mg/kg (Mus musculus [1]) of 65%.

For `CC(C)CNc1nc(=O)c2cnn3c2n1CC=C3c1ccccc1`, the survival at 100 mg/kg (Mus musculus [2]) was 30%.

`Nc1nc(=O)c2cnn3c2n1CC=C3c1cccc(C(F)(F)F)c1` gave a survival at 100 mg/kg (Mus musculus [2]) of 68%, a Latency (Mus musculus [10]) of 102 s and an Improvement (Mus musculus [6]) of 20%. For the same compound, the Latency (Mus musculus [6]) was 180 s.
